In patent publication EP3498298A1, “THE USE OF SGC STIMULATORS AND SGC ACTIVATORS ALONE OR IN COMBINATION WITH PDE5 INHIBITORS FOR THE TREATMENT OF BONE DISORDERS INCLUDING OSTEOGENESIS IMPERFECTA (OI)” (Bayer AG, priority 2017, dated 2019):

Tests used:
[1] = test system: ovariectomized female mice; details: intraperitoneally, 10µg/kg bolus dose; cited from earlier work
[2] = test system: B6C3Fe a/a-Col1a2 oim /J (OI mice) termed as HOM; test: 16 week chronic treatment study, micro-CT of femora (bone morphology and architecture) in OI mice; format: in vivo; details: 300 ppm (300mg/kg chow), 16 weeks; treated female HOM mice compared to untreated female HOM mice; P < 0.05
Source text: (§1) Preferentially mice were used, especially transgenic mice (B6C3Fe a/a-Col1a2 oim /J (Jackson Laboratories)) (Chipman et al. 1993, McBride et al. 1998). These so called OI-mice (OIM, also called HOM mice) carry a mutation in the collagen gen (Col1a2) which reflects the phenotype and clinical situation of patients with […] OI. For the treatment homozygous OIM are used and compared with WT mice which serve as control.
(§2) As read-outs were preferentially used: • semiquantitative RT/PCR (TaqMan PCR) to assess gene expression according to standard procedures • histopathology to assess bone morphology according to standard procedures • high-resolution micro-CTscanner (µCT 35; Scanco Medical AG, Briittisellen, Switzerland) to evaluate bone morphology and architecture (Micro-CT) • three-point bending test to assess mechanical properties of the femora (Mechanical testing)
(§3) A high-resolution micro-CTscanner (µCT 35; Scanco Medical AG, Briittisellen, Switzerland) was used to evaluate bone morphology and architecture. […] The trabecular and cortical parameters were determined according to the guidelines for the assessment of bone microstructure with micro-CT (Bouxsein et al., 2010). […]

wild-type mice (WT) = test: 16 week chronic treatment study, micro-CT of femora (bone morphology and architecture) in wild-type mice; format: in vivo; details: 300 ppm (300mg/kg chow), 16 weeks
Source text: as §1, §2, §3

mice = details: cited from earlier work

O=C(O)CCCCN(CCc1ccccc1OCc1ccc(CCc2ccccc2)cc1)Cc1ccc(C(=O)O)cc1 [cinaciguat]
bone density [1]: could increase bone density

Nc1nc(-c2nn(Cc3ccccc3F)c3ncccc23)ncc1C1CC1 [BAY 41-2272, 3-(4-amino-5-cyclopropylpyrimidin-2-yl)-1-(2-fluorobenzyl)-1H-pyrazolo[3,4-b]pyridine]
trabecular number (Tb.N) [2]: increased
trabecular separation (Tb.Sp) [2]: decreased
structural properties of both trabecular and cortical bone (wild-type mice (WT)): no effect

CCCc1nn(C)c2c(=O)[nH]c(-c3cc(S(=O)(=O)N4CCN(C)CC4)ccc3OCC)nc12 [sildenafil, 3-[2-ethoxy-5-(4-methylpiperazin-1-yl)sulfonyl-phenyl]-7-methy1-9-propy1-2,4,7,8-tetrazabicyclo [4.3.0]nona-3,8,10-trien-5-one]
fracture healing (mice): accelerates fracture healing
